# Results reported in US20070037752A1, “Novel alanyl-amino peptidase inhibitors for functionally influencing different cells and treating immunological, inflammatory, neuronal, and other diseases” (priority 2003, published 2007).
# Residues, ends and D or L forms follow the SMILES beside them. *: point of attachment. Fmoc = O=C(OCC1c2ccccc2-c2ccccc21)*
# Molecular target: alanyl aminopeptidases (APN) (Homo sapiens, UniProt P15144)
# Experiment: Inhibition of alanyl aminopeptidase enzymatic activity, fluorogenic substrate (Ala)2-rhodamine 110
# Type: biochemical
# Conditions: Table 3, starred values = ID50; read-out: ID50 APN (values marked with *)
# Procedure: The inhibition characteristics measured are referred to as IC-50 values or ID50 values (the latter marked with “*”) for said enzyme. The enzymatic activity was determined by means of the fluorogenic substrate/product (Ala)2-rhodamine 110.
# Sequence of alanyl aminopeptidases (APN) (P15144 whole entry, species assumed): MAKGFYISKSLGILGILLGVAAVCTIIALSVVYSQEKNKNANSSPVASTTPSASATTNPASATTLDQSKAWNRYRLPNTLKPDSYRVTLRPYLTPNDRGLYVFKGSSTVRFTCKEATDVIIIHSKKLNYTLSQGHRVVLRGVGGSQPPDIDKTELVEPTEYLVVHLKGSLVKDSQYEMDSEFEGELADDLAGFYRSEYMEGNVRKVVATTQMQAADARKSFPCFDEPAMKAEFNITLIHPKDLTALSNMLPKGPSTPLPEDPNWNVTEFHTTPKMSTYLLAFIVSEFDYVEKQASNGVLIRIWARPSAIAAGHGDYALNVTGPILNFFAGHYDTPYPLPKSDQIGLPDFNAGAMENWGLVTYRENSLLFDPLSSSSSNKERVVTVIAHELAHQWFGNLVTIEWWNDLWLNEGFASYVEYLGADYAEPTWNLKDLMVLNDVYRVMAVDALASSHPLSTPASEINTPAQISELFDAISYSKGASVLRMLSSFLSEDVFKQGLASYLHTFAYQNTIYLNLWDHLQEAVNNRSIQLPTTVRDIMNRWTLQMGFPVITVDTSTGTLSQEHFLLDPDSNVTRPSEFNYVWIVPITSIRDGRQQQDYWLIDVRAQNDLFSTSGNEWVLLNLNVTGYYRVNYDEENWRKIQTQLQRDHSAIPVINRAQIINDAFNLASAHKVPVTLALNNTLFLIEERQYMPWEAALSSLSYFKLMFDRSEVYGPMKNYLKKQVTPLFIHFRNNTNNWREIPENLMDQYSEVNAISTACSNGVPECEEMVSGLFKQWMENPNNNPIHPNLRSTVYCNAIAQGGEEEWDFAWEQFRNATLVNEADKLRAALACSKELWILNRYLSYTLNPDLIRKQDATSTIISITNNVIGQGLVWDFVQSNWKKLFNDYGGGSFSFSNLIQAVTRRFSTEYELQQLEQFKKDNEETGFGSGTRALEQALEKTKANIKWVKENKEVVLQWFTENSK
row,IC50 [µM],SMILES
1,23.7,O=C1C(Cc2ccc(O)cc2)NC(=S)N1Cc1ccccc1 (stereo not drawn) [A3.145]

# Same assay, conditions: Table 3, unstarred values; read-out: IC50APN
row,SMILES,IC50 [µM]
1,Cc1cc(=O)[nH]c(N/N=C/c2ccco2)n1 [A3.088],18.2
2,CC(=O)c1cccc(-c2ccc(/C=C3/C(=O)N(CCCO)C(=O)C(C#N)=C3C)o2)c1 [A3.089],18.2
3,Cc1ccc(/C=N/NC(=O)c2ccccc2OCc2ccccc2)o1 [A3.090],18.4
4,NNC(=O)Cn1c2ccccc2n2cc(-c3ccccc3)cc12 [A3.091],18.7
5,O=C(Nc1ccccc1C(=O)N/N=C/c1ccco1)c1ccc(Cl)cc1Cl [A3.092],18.7
6,Cc1ccc(/C=N/NC(=O)c2cccc(NC(=O)c3ccccc3C)c2)o1 [A3.093],18.9
7,O=C(N/C(=C\c1ccco1)C(=O)N1CCCC(CO)C1)c1ccccc1 (stereo not drawn) [A3.094],19
8,Cc1cc(I)ccc1CC(=O)CCC(=O)N/N=C/c1ccco1 [A3.095],9.5
9,Cc1ccccc1S(=O)(=O)Nc1cccc(C(=O)N/N=C/c2ccco2)c1 [A3.097],19.2
10,CN1C/C(=C/c2ccco2)C(=O)/C(=C/c2ccco2)C1 [A3.098],19.2
11,CCCOc1ccccc1-c1cc(C(=O)N/N=C/c2ccco2)[nH]n1 [A3.100],19.5
12,O=C(N/N=C/c1cc(Br)cc(Br)c1OC(=O)c1ccccc1)/C(=C/c1ccc2c(c1)OCO2)NC(=O)c1ccccc1 [A3.101],19.8
13,COc1ccc(/C(C)=N/NC(=O)CNC(=O)/C=C\c2ccco2)cc1OC [A3.102],19.9
14,CC1CCCCN1S(=O)(=O)c1ccc(NC(=O)/C=C/c2ccco2)cc1 (stereo not drawn) [A3.103],19.9
15,CN(C)c1ccc(C2C3C(=O)N(c4ccccc4)C(=O)C3ON2c2ccc(Cl)cc2)cc1 (stereo not drawn) [A3.104],20
16,CCCOc1[nH]c(/N=C/c2ccccc2)c(C#N)c1C#N [A3.105],20
17,Cc1cccc(C(=O)Nc2ccc(C(=O)N/N=C/c3ccc(C)o3)cc2)c1 [A3.106],20.2
18,Cc1cc(C)n(-c2nnc(N)nn2)n1 [A3.107],20.3
19,COc1cc(Br)ccc1OCC(=O)N/N=C/c1cc(Br)c(O)c(O)c1Br [A3.109],20.5

row,SMILES,IC50 [µM]
1,O=C(N/N=C/c1ccco1)c1cccc(NC(=O)c2ccccc2Cl)c1 [A3.110],20.6
2,COc1ccc(-c2nc(C)sc2CC(=O)O)cc1 [A3.111],20.8
3,CCCN1C(=O)C(C#N)=C(C)/C(=C\c2ccc(-c3cccc(Cl)c3C)o2)C1=O [A3.112],20.8
4,O=C(N/N=C/c1ccco1)c1cc(-c2ccco2)n[nH]1 [A3.113],20.9
5,COc1ccc(C[C@@H](N)C(=O)N[C@@H]2[C@H](O)[C@H](n3cnc4c(N(C)C)ncnc43)O[C@@H]2CO)cc1 [A3.114],20.9
6,O=C(N/C(=C\c1ccco1)C(=O)N1CCC(O)CC1)c1ccccc1 [A3.115],21.1
7,O=C(O)c1ccc(-n2c(/C=C/c3ccco3)nc3ccccc3c2=O)cc1 [A3.116],21.2
8,COC(=O)c1cc(NC(=O)Cc2cccs2)cc(C(=O)OC)c1 [A3.117],21.2
9,O=C1C(Cc2ccc(O)cc2)NC(=S)N1C1CCCCC1 (stereo not drawn) [A3.118],21.3
10,CC1=C(C#N)C(O)=NC(=O)/C1=C/c1ccc(-c2ccc(Cl)c(C(=O)OC(C)C)c2)o1 [A3.120],21.4
11,Cc1cccc(C)c1Nc1c(-c2ccccc2NC(=O)Nc2cccc(Cl)c2)nc2c(C(=O)NCC(C)C)cccn12 [A3.121],21.6
12,O=C(Nc1ccc(N=Nc2ccccc2)cc1)c1ccc(S(=O)(=O)N2CCCC2)cc1 [A3.122],21.6
13,CCOc1ccc(S(=O)(=O)N2CCCCC2)cc1-c1nc2c(C(C)(C)C)nn(C)c2c(=O)[nH]1 [A3.124],21.8
14,COc1ccc(C(=O)N/N=C/c2cc(Br)c(C)o2)cc1 [A3.125],21.8
15,Cc1ccc(/C=N/NC(=O)COc2ccccc2C)o1 [A3.128],22.2
16,CCOC(=O)c1c(C)oc2c1c1c(c3ccccc32)OCN(C2CCS(=O)(=O)C2)C1 (stereo not drawn) [A3.129],22.3
17,O=C(N/N=C/c1ccco1)c1ccc(=O)[nH]n1 [A3.130],22.4
18,O=C(N/N=C/c1ccco1)c1cccc(NC(=O)c2cccc(Br)c2)c1 [A3.131],22.4

# More lines, now with the values ahead:
row,IC50 [µM],SMILES
1,22.5,CC(C)CC(NC(=O)C(CCC(N)=O)NC(=O)CNC(=O)C(NC(=O)OCC1c2ccccc2-c2ccccc21)C(C)C)C(=O)O (stereo not drawn) [A3.132] (Fmoc-VGQL-OH; configuration not given here)
2,25,Cn1nc(-c2cccs2)nc2c(=O)n(C)c(=O)nc1-2 [A3.133]
3,22.6,COc1ccc(C(=O)N/N=C/c2ccco2)cc1 [A3.134]
4,22.8,CCN(CC)c1ccc(/C=N/NC(=O)CNC(=O)/C=C/c2ccco2)cc1 [A3.135]
5,22.8,Cc1ccc(/C=N/NC(=O)c2ccc(NC(=O)c3ccccc3C)cc2)o1 [A3.136]
6,23,CN(C)CCCN1CCN(c2nc(N(C)CC(=O)O)c3ncn(Cc4ccc(C(F)(F)F)cc4)c3n2)CC1 [A3.137]
7,23,CC1=NNC(=O)C1CCC(=O)N/N=C\C=C\c1ccco1 (stereo not drawn) [A3.138]
8,23.1,CCOC(=O)C1=C2SCC(=O)N2C(N)=C(C#N)C1 [A3.139]
9,23.4,Cc1cc(C)cc(OCC(=O)N/N=C/c2ccco2)c1 [A3.140]
10,23.4,COc1ccc(CCCC(=O)N/N=C/c2ccco2)cc1 [A3.141]
11,23.4,Cc1ccc(/C=N/NC(=O)c2ccc(O)cc2)o1 [A3.142]
12,23.6,O=C(N/N=C/c1cc(Br)c(O)c(Br)c1O)/C(=C\c1ccc2c(c1)OCO2)NC(=O)c1ccccc1 [A3.143]
13,23.7,O=C(O)c1ccc2c(c1)C(=O)/C(=C\c1ccco1)C2=O [A3.144]
14,23.8,CCCOC(=O)c1cc(-c2ccc(/C=C3\C(=O)N(CCCO)C(=O)C(C#N)=C3C)o2)ccc1Cl [A3.146]
15,24.4,O=C1/C(=C/C=C/c2ccco2)CCC/C1=C\C=C\c1ccco1 [A3.147]
16,24.5,O=C(N/N=C\c1ccco1)c1ccc(Br)cc1 [A3.148]

row,IC50 [µM],SMILES
1,24.8,Cc1ccc(/C=C/C(=O)Nc2ccc(S(=O)(=O)N3CCCC3)cc2)o1 [A3.149]
2,24.9,Cc1ccc(C)n1-c1cccc(C(=O)N/N=C/c2cc(Br)c(O)c(Br)c2)c1 [A3.150]
3,26.1,O=C1C(Cc2ccccc2)NC(=S)N1c1ccccc1 (stereo not drawn) [A3.151]
4,25.1,COc1cc(/C=N/NC(=O)/C(=C/c2cccs2)NC(=O)c2ccccc2)cc([N+](=O)[O-])c1O [A3.152]
5,25.1,CCc1ccc(OCC(=O)N/N=C\c2ccco2)c([N+](=O)[O-])c1 [A3.153]
6,25.5,O=C(N/C(=C\c1ccco1)C(=O)N1CCOCC1)c1ccccc1Cl [A3.154]
7,25.8,CCOc1ccc(Br)cc1C(=O)N/N=C/c1ccco1 [A3.155]
8,25.9,O=C(N/N=C/c1ccco1)c1cccc(NC(=O)c2ccc(F)cc2)c1 [A3.156]
9,26.1,Cn1c(=O)[nH]c2nnc(-c3cccs3)nc2c1=O [A3.157]
10,26.3,O=C(CCCOc1ccc(Cl)cc1Cl)N/N=C/c1ccco1 [A3.158]
11,22.6,Cc1ccc(/C=N/NC2=NC(=O)CS2)o1 [A3.159]
12,26.4,Cc1ccc(/C=N/NC(=O)c2cc(O)cc(O)c2)o1 [A3.160]
13,26.4,O=C1CNC(c2cccc([N+](=O)[O-])c2)N1O (stereo not drawn) [A3.161]
14,26.6,COc1ccc(C2(CNC(=O)/C=C/c3ccco3)CCCC2)cc1OC [A3.162]
15,26.7,Cc1ccc(/C=N/NC(=O)c2nnn(-c3nonc3N)c2CN2CCOCC2)o1 [A3.163]
